Laboratory results from patent US20210145804A1, “COMPOSITIONS AND METHODS FOR TREATING DISORDERS AMELIORATED BY MUSCARINIC RECEPTOR ACTIVATION” (Karuna Therapeutics, Inc., priority 2019, published 2021).
Marks after values point to notes of the source that are not given here.

Legend:
[1] = Mutagenic potential of xanomeline synthesis intermediate
[2] = system: normal healthy volunteers; parameters: species or system human; details: in vivo
Procedure: A Phase I, double-blind, randomized multiple-dose pilot study was conducted with xanomeline administered alone compared to xanomeline administered with trospium chloride in normal healthy volunteers. […]

Alzheimer's disease = details: 26-week study of Alzheimer's disease; cited from earlier work
[3] = KAR-001 Phase I study: xanomeline and trospium plasma pharmacokinetics; assay type: in vivo, human

**Q.** For CCCCCCOc1nsnc1-c1ccc[n+](C)c1 [Compound V], which Mutagenic potential [1] is on record?
**A.** negative

**Q.** With CCCCCCOc1nsnc1C1=CCCN(C)C1 [Xanomeline + placebo, xanomeline] as the compound, how does the “AE leading to discontinuation (D/C)” value [2] read?
**A.** 2 (6.1) n (%)

**Q.** What about the “AE leading to discontinuation (D/C): # events” value [2] of the same compound?
**A.** 2

**Q.** And the “Any SAE” value [2]?
**A.** 0 (0.0) n (%)

**Q.** And the “Any TEAE: # events” value [2]?
**A.** 108

**Q.** And the “Any cholinergic TEAEs, number of individual occurrences” value [2]?
**A.** 64 #

**Q.** What about the “Any clinically significant TEAE” value [2] of the same compound?
**A.** 5 (15.2) n (%)

**Q.** And the “Any clinically significant TEAE: # events” value [2]?
**A.** 5

**Q.** And the “Any study drug-related TEAE” value [2]?
**A.** 23 (69.7) n (%)

**Q.** What about the “Any study drug-related TEAE: # events” value [2] of the same compound?
**A.** 92

**Q.** What about the “Cholinergic adverse events, Any TEAEs: # of events” value [2] of the same compound?
**A.** 64

**Q.** And the “Cholinergic adverse events, Any TEAEs: subjects” value [2]?
**A.** 21 (63.6%) n [%]

**Q.** What about the “Cholinergic adverse events, Diarrhea: # of events” value [2] of the same compound?
**A.** 8

**Q.** What about the “Cholinergic adverse events, Diarrhea: subjects” value [2] of the same compound?
**A.** 7 (21.2%) n [%]

**Q.** What about the “Cholinergic adverse events, Nausea: # of events” value [2] of the same compound?
**A.** 11

**Q.** What about the “Cholinergic adverse events, Nausea: subjects” value [2] of the same compound?
**A.** 8 (24.2%) n [%]

**Q.** And the “Cholinergic adverse events, Salivation: # of events” value [2]?
**A.** 16

**Q.** And the “Cholinergic adverse events, Salivation: subjects” value [2]?
**A.** 12 (36.4%) n [%]

**Q.** What about the “Cholinergic adverse events, Sweating: # of events” value [2] of the same compound?
**A.** 24

**Q.** And the “Cholinergic adverse events, Sweating: subjects” value [2]?
**A.** 16 (48.5%) n [%]

**Q.** And the “Cholinergic adverse events, Vomiting: # of events” value [2]?
**A.** 5

**Q.** What about the “Cholinergic adverse events, Vomiting: subjects” value [2] of the same compound?
**A.** 5 (15.2%) n [%]

**Q.** What about the “Diarrhea, incidence” value [2] of the same compound?
**A.** 7 (20.6) n (%)

**Q.** What about the “Diarrhea, number of individual occurrences” value [2] of the same compound?
**A.** 8 #

**Q.** And the “Gastrointestinal disorders (cholinergic TEAE), incidence” value [2]?
**A.** 18 (52.9) n (%)

**Q.** What about the “Gastrointestinal disorders (cholinergic TEAE), number of individual occurrences” value [2] of the same compound?
**A.** 40 #

**Q.** What about the “Hyperhidrosis, incidence” value [2] of the same compound?
**A.** 16 (47.1) n (%)

**Q.** What about the “Hyperhidrosis, number of individual occurrences” value [2] of the same compound?
**A.** 24 #

**Q.** And the “Incidence rate of sweating (hyperhidrosis)” value [2]?
**A.** 48.5%

**Q.** What about the “Max Severity of TEAE: Mild” value [2] of the same compound?
**A.** 22 (66.7) N/A n (%)

**Q.** What about the “Max Severity of TEAE: Moderate” value [2] of the same compound?
**A.** 5 (15.2) N/A n (%)

**Q.** And the “Max Severity of TEAE: Severe” value [2]?
**A.** 0 (0.0) n (%)

**Q.** And the “Max severity of study drug-related TEAE: Mild” value [2]?
**A.** 19 (57/6) N/A n (%)

**Q.** And the “Max severity of study drug-related TEAE: Moderate” value [2]?
**A.** 4 (12.1) N/A n (%)

**Q.** And the “Max severity of study drug-related TEAE: Severe” value [2]?
**A.** 0 (0.0) N/A n (%)

**Q.** What about the “Nausea, incidence” value [2] of the same compound?
**A.** 8 (23.5) n (%)

**Q.** And the “Nausea, number of individual occurrences” value [2]?
**A.** 11 #

**Q.** What about the “Salivary hypersecretion, incidence” value [2] of the same compound?
**A.** 12 (35.3) n (%)

**Q.** What about the “Salivary hypersecretion, number of individual occurrences” value [2] of the same compound?
**A.** 16 #

**Q.** And the “Skin and subcutaneous tissue disorders (cholinergic TEAE), incidence” value [2]?
**A.** 16 (47.1) n (%)

**Q.** And the “Skin and subcutaneous tissue disorders (cholinergic TEAE), number of individual occurrences” value [2]?
**A.** 24 #

**Q.** And the “Study drug related AE leading to D/C” value [2]?
**A.** 1 (3.0) n (%)

**Q.** And the “Study drug related AE leading to D/C: # events” value [2]?
**A.** 1

**Q.** And the “Subjects reporting at least one cholinergic adverse event” value [2]?
**A.** 63%

**Q.** What about the “Subjects who experienced syncope” value [2] of the same compound?
**A.** Two

**Q.** What about the “Subjects with any TEAE” value [2] of the same compound?
**A.** 27 (81.8) n (%)

**Q.** What about the “Subjects with any cholinergic TEAEs, incidence” value [2] of the same compound?
**A.** 21 (61.8) n (%)

**Q.** And the “Vomiting, incidence” value [2]?
**A.** 5 (14.7) n (%)

**Q.** What about the “Vomiting, number of individual occurrences” value [2] of the same compound?
**A.** 5 #

**Q.** What about the Dropout rate (Alzheimer's disease) of the same compound?
**A.** 56%

**Q.** For O=C(O[C@H]1C[C@H]2CC[C@@H](C1)[N+]21CCCC1)C(O)(c1ccccc1)c1ccccc1 [trospium alone, trospium chloride], which “Trospium Tmax” value ([3]; KAR-001 Day 1, 20 mg trospium BID lead-in, median) is on record?
**A.** 3.0 h

**Q.** What about the Tmax ([3]; human, in vivo, 20 mg, KAR-001 Day 1, read-out: Trospium median Tmax) of the same compound?
**A.** 3 h

**Q.** What about the Cmax ([3]; human, in vivo, KAR-001 Day 1, 20 mg trospium BID lead-in, geometric mean) of the same compound?
**A.** 0.722 ng/mL

**Q.** And the AUC(0-inf) ([3]; human, in vivo, KAR-001 Day 1, 20 mg trospium BID lead-in, geometric mean, read-out: Trospium AUC0-inf)?
**A.** 7.79 ng·h/mL

**Q.** And the AUC ([3]; human, in vivo, KAR-001 Day 1, 20 mg trospium BID lead-in, geometric mean, read-out: Trospium AUC0-tau)?
**A.** 5.03 ng·h/mL
